# Test system: mice subjected to histotoxic hypoxia induced by potassium cyanide
# Experiment: KCN hypoxia (i.p.) in mice (survival time)
# Format: in vivo, CD1 male mice
# Conditions: KCN 15 mg/kg i.p.
# [1] = compound i.p. dose 3, first i.p. series
# [2] = compound i.p. dose 10, first i.p. series
# [3] = compound i.p. dose 30, first i.p. series (control 106 ± 9)
# [4] = compound i.p. dose 30, second i.p. series (control 91 ± 4)
# [5] = compound i.p. dose 50, second i.p. series
# [6] = compound i.p. dose 75, second i.p. series
compound,measurement,setting,value
"CCNC1=Nc2ccc(Cl)cc2C(C)(c2ccccc2)O1.Cl (centres unmarked) [etifoxine, 6-chloro-2-ethylamino-4-methyl-4-phenyl-4H-[3,1]benzoxazine hydrochloride]",Percentage variation,[1],+15%
same,Survival time in seconds (m ± sem),[1],122 ± 7 s
same,Percentage variation,[2],+7%
same,Survival time in seconds (m ± sem),[2],113 ± 5 s
same,Percentage variation,[3],+22%
same,Survival time in seconds (m ± sem),[3],129 ± 11 s
same,Percentage variation,[4],+19%
same,Survival time in seconds (m ± sem),[4],108 ± 4 s
same,Percentage variation,[5],+36%
same,Survival time in seconds (m ± sem),[5],124 ± 8 s
same,Percentage variation,[6],+46%
same,Survival time in seconds (m ± sem),[6],133 ± 6 s
same,Percentage variation,compound p.o. dose 100,−13%
same,Survival time in seconds (m ± sem),compound p.o. dose 100,94 ± 6 s
same,Percentage variation,compound p.o. dose 200,+14%
same,Survival time in seconds (m ± sem),compound p.o. dose 200,123 ± 12 s
same,Percentage variation,compound p.o. dose 300,−6%
same,Survival time in seconds (m ± sem),compound p.o. dose 300,102 ± 7 s
same,survival time,oral administration,did not significantly affect survival time
same,time to death,over 50 mg/kg i.p.,significantly increased the time to death

# Source: US8338410B2, “Neuroprotective compounds and pharmaceutical compositions comprising them” (Biocodex, priority 2005, dated 2012)
